The source of these data is US20260345582A1, “PRODRUG FOR ANTI-AGING RELATED DISEASES AND USE METHOD THEREOF” (Beijing SunCell Bio-Medical Co., Ltd., priority 2022, published 2026).

Entries after “also recorded” stand apart in the source; their conditions may differ.

Data set [1] is described as follows: observation of status and clinical manifestations of mice during multiple rounds of administration. Format: in vivo, C57 mice. The settings on record: for mice depilated, dispirited and in poor state: after 3 consecutive rounds. As to the method: B. The schematic diagram of the multiple dosing and the subsequent blood routine examinations in mice. The drug was administered on 3 consecutive days per week, followed by a 4-day interval, for 3 weeks continuous administration. The drug was administered by intraperitoneal injection in the afternoon on days 0, 1, 2, 7, 8, 9, 14, 15, and 16, and the blood was collected and tested in the morning on days 1, 3, 5, 8, 10, 12, 15, 17, and 19, respectively.
A single administration of A13 or A13bG was performed. Female 5-6 week old C57 mice were treated with a single intraperitoneal injection. A13 and A13bG were administered in three different dose groups of 2, 5, and 20 mg/kg. Approximately 50 μl of blood was collected from each mouse at different time points into the EDTA tubes (RAM Scientific) by means of inner canthal blood extraction, and analyzed using a haematology analyzer for a blood routine examination and a platelet counting. Multiple administrations of A13 or A13bG were performed. Female 5-6 week old C57 mice were treated with multiple intraperitoneal injections. A13 and A13bG were administered in three different dose groups of 2, 5 and 20 mg/kg, three consecutive days per week, followed by a 4-day withdrawal for 3 weeks. The time points of administration were in the afternoon of days 0, 1, 2, 7, 8, 9, 14, 15, and 16, and the time points of blood collection and testing were in the morning of days 1, 3, 5, 8, 10, 12, 15, 17, and 19, respectively.

Data set [2] is described as follows: liver microsomal metabolic stability, mouse. How it is done:
Hepatic Microsomal Metabolic Stability
A13bGa1 was co-incubated with the mouse, rat, canine, monkey and human […] and the incubation medium at a final drug concentration of 1 μM in the incubation system for 60 minutes. Samples were taken and analyzed at time points 0, 15, 30, 45 and 60 minutes during the incubation. The reaction was terminated by adding an amount of acetonitrile solution containing the internal standard. […] The residual percentage, half-life, intrinsic clearance, amplified clearance, hepatic clearance and hepatic extraction ratio were determined. The entire experiment was performed in triplicate. All data calculations were performed by Microsoft Excel software. Peak areas were detected by extracting the ionic spectrum. The in vitro half-life (t1/2) of the parent compound was detected by fitting the natural logarithm of the percentage elimination of the parent compound linearly to time.
The in vitro intrinsic clearance (in μL/min/mg protein) was calculated using the following equation: in vitro CLint=kV/N
The amplified clearance (in mL/min/kg) was calculated using the following equation: Amplified CLint=kV/N×the amplification factor
The hepatic clearance (in mL/min/kg) was calculated using the following equation: The predicted hepatic CLH=(Q×Fu/RB×the amplified CLint)/(Q+Fu/RB×the amplified CLint) • V=the incubation volume per well (0.2 mL); • N=the total amount of protein (mg) • Q=the hepatic blood flow (mL/min/kg) • Fu=the plasma free rate (assumed to be 1) • RB=the whole blood partition coefficient (assumed to be 1)
The hepatic uptake rate was calculated using the following equation:
The hepatic extraction ratio (ER)=(the predicted hepatic CLH)/Q

Data set [3] can be described thus: plasma metabolic stability, rat. Format: in vitro ADME. The following applies: 120 min. As to the method:
(§1) Plasma Metabolic Stability
(§2) Termination of the reaction was accomplished by the addition of 3× volume of acetonitrile and centrifugation at 16000 g for 20 minutes. The supernatant was taken for a LC-MS/MS analysis. The chromatographic column: Waters XSelect HSS T3; the flow rate: 500 μL/min; the eluent: A, water (0.1% formic acid); B, acetonitrile (0.1% formic acid); the gradient elution: 0-1.5 min, 5% B, 1.5-9 min, 5%-80% B, 9-12 min, 80%-100% B, 12-14 min, 100% B, 14-14.3 min, 100%-5% B, 14.3-15 min, 5% B.

The nature of data set [4]: plasma metabolic stability, canine. The class given is in vitro ADME. The settings on record: dog, 120 min. How it is done:
as §1, §2

The mark [5] stands for this setting: 10 μM prodrug, read-out: The peak area after normalisation at minute 120, oxidative dehydrogenation metabolite.
Setting [6] is: 10 μM, read-out: The peak area after normalisation at minute 120, initial drug.

`Cc1c(-c2ccc(N3CCc4cccc(C(=O)Nc5nc6ccccc6s5)c4C3)nc2C(=O)O)cnn1CC12CC3CC(CC(C3)C1)C2` [Compound A13, 3-[1-(adamantan-1-ylmethyl)-5-methylpyrazol-4-yl]-6-{8-[(1,3-benzothiazol-2-yl)carbamoyl]-3,4-dihydro-1H-isoquinolin-2-yl}pyridine-2-carboxylic acid]: the “status and clinical manifestations (abnormalities)” value in data set [1] (5 mg/kg and 20 mg/kg, 3 consecutive weeks, FIG. 4D) is “depilated, dispirited and in poor state; also recorded: hair loss and depression”. Moreover, the “mice depilated, dispirited and in poor state” value in data set [1] (5 mg/kg dose group) and in data set [1] (20 mg/kg dose group) was 2 out of 4 each time.

In the case of `Cc1c(-c2ccc(N3CCc4cccc(C(=O)Nc5nc6ccccc6s5)c4C3)nc2C(=O)OCc2ccc(O[C@@H]3O[C@H](CO)[C@H](O)[C@H](O)[C@H]3O)c([N+](=O)[O-])c2)cnn1CC12CC3CC(CC(C3)C1)C2` [Compound A13bGa1], the “The hepatic extraction ratio (E)” value in data set [2] was determined as 0.40. In addition, the “The intrinsic clearance in vitro Clint” value in data set [2] (1 μM, 60 min) is listed as 13.79 μL/min/mg protein. In addition, in data set [2] (Fu and RB assumed to be 1), the “The predicted intrinsic hepatic clearance Clint” value is 36.24 mL/min/kg. For the same compound, the CLint scaled at 1 µM in data set [2] (microsomes) was 60.7 mL/min/kg. In data set [2] (microsomes), the half-life at 1 h, 1 µM was 1.68 h. For the same compound, the metabolised at 2 h, 10 µM in data set [3] (setting [5]) is 0.13%; in data set [4] (setting [5]), 0.48%. Also, the remaining at 2 h, 10 µM in data set [3] (setting [6]) was 99.9%; in data set [4] (setting [6]), 99.5%.
